Legend:
catalase (CAT) = assay: serum antioxidant enzyme activity by ELISA: CAT; assay type: in vivo, C57BL/6 mice
Description: The C57BL/6 mice, which weighed between 23 and 25 g, were divided into seven groups randomly. In each group, the six mice induced by blue light successfully were incorporated in experiments. The samples dissolved in deuterium-depleted water (DDW) were fed to mice through oral tubes once a day. The groups were named and introduced as follows: • (1) Solvent not classified group (NC): The mice were fed with 0.2 ml deuterium-depleted water (DDW) through tubes; • (2) Negative control group (Blue light (BL)): The mice were fed with 0.2 ml deuterium-depleted water (DDW) through tubes and exposed to blue light; • (3) Low-dosage Y7 probiotics group (Y7L): The mice were fed with low-dosage Y7 probiotics (probiotic counts of 1.0×10^8 CFU/ml dissolved in 0.2 ml DDW per day) and exposed to blue light; • (4) High-dosage Y7 probiotics group (Y7H): The mice were fed with high-dosage Y7 probiotics (probiotic counts of 1.0×10^9 CFU/ml dissolved in 0.2 ml DDW per day) and exposed to blue light; • (5) Positive control group (lutein (LU)): The mice were fed with lutein and exposed to blue light. The recommended human dosage of lutein is 30 mg.
The mouse cage (48×25×20 cm) placed inside a stainless ventilated box was equipped with blue light boards as blue light sources around and above. […]
The performance of antioxidant enzymes in serums was analyzed through the enzyme-linked immunosorbent assay (ELISA).

[1] = water intakes of mice during the experiment; assay type: in vivo, C57BL/6 mice; settings: LU, lutein 6.15 mg/kg bw oral daily, blue light, Mean±S.E.M., n=6
Description: In the present invention, six-week-old male C57BL/6 mice were placed in a breeding cage in which the following feeding conditions were kept: temperature, 22±2° C., humidity, 55±5%, and the light-dark cycle of 12-hour light and 12-hour dark. The mice were fed with fodders at the adaptive phase for one week; general solid fodders for test animals were administered to mice of the control group and mice during the adaptive phase. The initial day was defined as Day 0 when the adaptive phase for the mice was over. From the next week, the mice were interfered with samples under test and exposed to blue light. During the experiments, the mice were monitored for weights as well as water intakes and checked for any physiological change. The data for experiments through electroretinography (ERG), fndus photography (FP), fundus fluorescein angiograph (FFA), spectral-domain optical coherence tomography (SD-OCT) and intraocular pressure (IOP) were collected at Day 0, Day 21 and Day 35, as shown in FIG. 1 for the experimental process. The C57BL/6 mice, which weighed between 23 and 25 g, were divided into seven groups randomly. In each group, the six mice induced by blue light successfully were incorporated in experiments. The samples dissolved in deuterium-depleted water (DDW) were fed to mice through oral tubes once a day. The groups were named and introduced as follows: • (1) Solvent not classified group (NC): The mice were fed with 0.2 ml deuterium-depleted water (DDW) through tubes; • (2) Negative control group (Blue light (BL)): The mice were fed with 0.2 ml deuterium-depleted water (DDW) through tubes and exposed to blue light; • (3) Low-dosage Y7 probiotics group […]): The mice were fed with low-dosage Y7 probiotics (probiotic counts of 1.0×10^8 CFU/ml dissolved in 0.2 ml DDW per day) and exposed to blue light; • (4) High-dosage Y7 probiotics group […]): The mice were fed with high-dosage Y7 probiotics (probiotic counts of 1.0×10^9 CFU/ml dissolved in 0.2 ml DDW per day) and exposed to blue light; • (5) Positive control group (lutein (LU)): The mice were fed with lutein and exposed to blue light. The recommended human dosage of lutein is 30 mg. The mouse cage (48×25×20 cm) placed inside a stainless ventilated box was equipped with blue light boards as blue light sources around and above. In the experiment of animals exposed to blue light, six-week-old mice staying in the mouse cage were fed with drinking water as well as fodders and exposed to 400 Lux blue light illumination under the light-dark cycle of 12-hour light and 12-hour dark. The experiment was aimed at causing mice' late dry macular disease induced by chronic light injuries for simulating a human being's macular disease after long-term exposure to short-wavelength blue light from 3C products in daily life. All data written as the form of mean±standard error of the mean (S.E.M.) were used in the statistical analysis through the one-way ANOVA and the Newman-Keuls test; p<0.05 denoted statistical difference. In the experiment, the software for the statistical analysis was Graph pad Prism (v9.2.0). The data such as food intake, water intake, body weight, organ weight and other clinical examination data were analyzed with the one-way ANOVA.

| Molecule | activity of catalase (CAT) compared with the BL group (catalase (CAT); Y7H high-dosage group) | activity of catalase (CAT) compared with the BL group (catalase (CAT); Y7L low-dosage group) | water intakes of mice ([1]; Day7) | water intakes of mice ([1]; Day14) | water intakes of mice ([1]; Day21) | water intakes of mice ([1]; Day28) | water intakes of mice ([1]; Day35) |
| --- | --- | --- | --- | --- | --- | --- | --- |
| Lactobacillus reuteri Y7 [Y7 probiotics] | increased significantly | increased significantly |  |  |  |  |  |
| CC1=C[C@H](O)CC(C)(C)[C@H]1/C=C/C(C)=C/C=C/C(C)=C/C=C/C=C(C)/C=C/C=C(C)/C=C/C1=C(C)C[C@@H](O)CC1(C)C [lutein, reference compound] |  |  | 3.69 ± 0.86 | 4.17 ± 1.05 | 4.71 ± 0.42 | 3.65 ± 0.61 | 3.88 ± 0.31 |
